Data: the SangsterLogP compilation

With `CN(C)/N=N/c1ccc(S(C)(=O)=O)cc1` as the compound, how does the logP read?
Its logP is 1.59.

For `CCN(C)/N=N/c1ccccc1C(N)=O`, which logP is on record?
The logP was 2.59.

Which logP does the source give for `CN(C)N=Nc1ccc(S(=O)(=O)CCO)cc1` here?
The logP was 1.15.

With `CN(CC(F)(F)F)N=Nc1ccc(C(N)=O)cc1` as the compound, how does the logP read?
Its logP is 1.86.

For `CCCCCN(C)N=Nc1ccc(C(=O)O)cc1`, which logP is on record?
Its logP is 1.46.

With `CN(C)N=Nc1ccc(S(=O)(=O)Nc2ccno2)cc1` as the compound, how does the logP read?
Its logP is 0.42.

With `CCN(CC)/N=N/c1ccc(C(N)=O)cc1` as the compound, how does the logP read?
Its logP is 2.26.

Which logP does the source give for `CCCC(C)N(C)N=Nc1ccc(C(=O)O)cc1` (stereo not given) here?
Its logP is 1.35.

For `CN(C)/N=N/c1ccc([N+](=O)[O-])cc1`, which logP is on record?
The logP was 3.25.

For `CCCCCN(C)N=Nc1ccc(C(N)=O)cc1`, which logP is on record?
Its logP is 3.18.

For `CCNN=Nc1ccc(C(N)=O)cc1`, which logP is on record?
The logP was 1.19.

For `CCN(CC)N=Nc1cc([N+](=O)[O-])cc([N+](=O)[O-])c1`, which logP is on record?
The logP was 4.69.

With `CC(C)N(N=Nc1ccc(C(N)=O)cc1)C(C)C` as the compound, how does the logP read?
The logP was 3.

With `CCN(CC)N=Nc1ccc(S(C)(=O)=O)cc1` as the compound, how does the logP read?
The logP was 2.6.

Which logP does the source give for `CCCN(C)N=Nc1ccc(C(N)=O)cc1` here?
The logP was 2.17.

Which logP does the source give for `CCN(C)/N=N/c1ccc(C(N)=O)cc1` here?
The logP was 1.69.

Which logP does the source give for `CCOC(=O)c1ccc(/N=N/N(C)C)cc1` here?
The logP was 3.66.

For `CN(C)/N=N/c1cccc(C(N)=O)c1`, which logP is on record?
The logP was 1.3.

With `COc1ccc(/N=N/N(C)C)cc1` as the compound, how does the logP read?
Its logP is 2.99.

Which logP does the source give for `CCCCN(C)N=Nc1ccc(C(=O)O)cc1` here?
Its logP is 0.96.

With `COC(=O)c1ccccc1/N=N/N(C)C` as the compound, how does the logP read?
Its logP is 2.51.

For `CCN(C)N=Nc1ccccc1C(=O)O`, which logP is on record?
The logP was 0.11.

For `CCCCN(C)/N=N/c1ccc(C(N)=O)cc1`, which logP is on record?
The logP was 2.68.

Which logP does the source give for `CN(Cc1ccccc1)N=Nc1ccc(C(N)=O)cc1` here?
The logP was 2.77.

With `CCOC(=O)c1ccc(N=NN(C)CCO)cc1` as the compound, how does the logP read?
Its logP is 2.66.

For `CCN(CC)N=Nc1ccccc1C(N)=O`, which logP is on record?
The logP was 2.96.

Which logP does the source give for `CCCCN(C)/N=N/c1ccccc1C(N)=O` here?
The logP was 3.52.

With `CN(C)/N=N/c1ccc(C(F)(F)F)cc1` as the compound, how does the logP read?
Its logP is 4.

Which logP does the source give for `CCCCCN(C)N=Nc1ccc(S(=O)(=O)Nc2ccccn2)cc1` here?
The logP was 2.16.

With `COC(=O)c1cccc(/N=N/N(C)C)c1` as the compound, how does the logP read?
The logP was 3.12.

For `C=CCN(CC=C)N=Nc1ccccc1C(=O)O`, which logP is on record?
Its logP is 0.62.

For `CN(C)/N=N/c1cccc(C(=O)O)c1`, which logP is on record?
The logP was -0.38.

For `CNN=Nc1ccc(C(N)=O)cc1`, which logP is on record?
The logP was 0.48.

With `CC(=O)N(C)N=Nc1ccc(C(N)=O)cc1` as the compound, how does the logP read?
Its logP is 1.37.

For `CN(C)/N=N/c1ccccc1C(=O)O`, which logP is on record?
The logP was -0.28.

With `CCCCCN(C)N=Nc1ccc(S(=O)(=O)Nc2nccc(C)n2)cc1` as the compound, how does the logP read?
Its logP is 2.34.

Which logP does the source give for `CN(C)/N=N/c1ccc(S(N)(=O)=O)cc1` here?
The logP was 0.85.

Which logP does the source give for `CCCN(C)N=Nc1ccc(C(=O)O)cc1` here?
Its logP is 0.46.

For `COC(=O)c1ccc(/N=N/N(C)C)cc1`, which logP is on record?
The logP was 3.22.

For `CCN(CC)N=Nc1ccccc1C(=O)O`, which logP is on record?
Its logP is 1.49.
